Where a SMILES comes first, the peptide text is derived from it. Bridges are numbered along the chain shown (N, C = ends). [ ]: non-standard residue; d: D form. The star is where a group is joined. X1 = O=C(c1ncc(Cl)cc1Cl)*; Dab = NCC[C@H](N)C(=O)O; Abu = CC[C@H](N)C(=O)O; Dap = NC[C@H](N)C(=O)O
Columns and labels:
A. baumannii FADDI-AB030 = test: In vivo efficacy in a neutropenic mouse lung infection model; design: species or system Acinetobacter baumannii; settings: 24 h
Procedure: The in vivo efficacy of several compounds was examined in a neutropenic mouse lung infection model against the clinical isolate A. baumannii FADDI-AB030. This Gram-negative isolate is highly multi drug-resistant as illustrated in Table 7.
FADDI-AB030 was subcultured on nutrient agar plates from the −80° C. stock. One colony of the bacterial strain was dispersed in 10-mL CAMHB and incubated overnight. On day 2, an aliquot (0.2 mL) of overnight culture suspension was dispersed in 20-mL CAMHB and incubated for 1.5-2.5 h for production of early log-phase growth bacterial culture. The bacteria in the early log-phase growth suspension were concentrated by centrifugation (3,220 g for 10 min) and re-suspended in sterile 0.9% saline for inoculation into mice. The bacterial cell concentration (colony forming unit [CFU]/mL) in saline was estimated by determining the optical density (OD) of the suspension at 600 nm, and confirmed by plating the suspension on nutrient agar plates. […]
Lung infection was produced as follows. […] Bacterial burdens in lungs were determined at 2 h after inoculation (untreated controls) and 24 h later (untreated controls and compound-treated mice). […] The bacterial colonies on the agar plate were counted and the log10 CFU/lung in each mouse was calculated (FIG. 1). […]

mouse kidney = settings: in vivo, 180 mg/kg
Excerpt: Lesions were rated as follows: mild acute tubular damage with tubular dilation, prominent nuclei and a few pale tubular casts (Grade 1); severe acute tubular damage with necrosis of tubular epithelial cells and numerous tubular casts (Grade 2); acute cortical necrosis/infarction of tubules and glomeruli with or without papillary necrosis (Grade 3). The grades were given the following scores: grade 1=1, grade 2=4, and grade 3=10. The percentage of area of the kidney slice showing histological damage was scored as follows: <1%=0, 1 to <5%=1, 5 to <10%=2, 10 to <20%=3, 20 to <30%=4, 30 to <40%=5, and >40%=6. The overall kidney histological score was calculated as the product of the percentage score and grade score. These scores were then expressed as a semiquantitative score (Kidney Histological Score) on a scale of 0 to +5 for renal histological changes. […]
Lung infection was produced as follows. […] Bacterial burdens in lungs were determined at 2 h after inoculation (untreated controls) and 24 h later (untreated controls and compound-treated mice). […] The bacterial colonies on the agar plate were counted and the log10 CFU/lung in each mouse was calculated (FIG. 1).
The right kidney from each of the treated animals was removed and assessed for histological damage as described for Example 3. […]

mice = test: Acute toxicity observed in the mouse lung infection study; type: in vivo; settings: up to 180 mg/kg total dose (four times the polymyxin B dose)
Procedure: Lung infection was produced as follows. Mice (n=4) were anaesthetised by inhalation of 2% to 5% isoflurane in oxygen and rested in the supine position against a restraining board which was angled at 60-70° from the horizontal. Each mouse was inoculated with 25 μL of bacterial suspension in saline (˜10^6 bacterial cells in early logarithmic growth phase) sprayed directly into the trachea above the carina using a MicroSprayer® Aerosolizer (model IA-1C; Penn-Century, Philadelphia, Pa., USA). After discharge of the bacterial aerosol, mice were held upright on the restraining board for 2 min and then placed on a warm pad for recovery from anaesthesia. Treatment with polymyxin B and Compound 1, 3, 6 and 18 (intraperitoneal injection of dose-fractionated regimens across the daily dose) was initiated 2 h following inoculation. […] This was the highest dose of polymyxin B that could be safely administered without adverse effects, i.e. acute toxicity. Bacterial burdens in lungs were determined at 2 h after inoculation (untreated controls) and 24 h later (untreated controls and compound-treated mice). Animals were euthanised at 24 h by inhalation of overdose isoflurane. The skin on the chest and fore-paws of each animal was thoroughly cleansed with 70% ethanol and Betadine®. […] The bacterial colonies on the agar plate were counted and the log10 CFU/lung in each mouse was calculated (FIG. 1). […]

CC[C@@H]1NC(=O)[C@@H](CC(C)C)NC(=O)[C@H](CCN)NC(=O)[C@@H](NC(=O)[C@H](CN)NC(=O)[C@@H](NC(=O)[C@H](CCN)NC(=O)c2ncc(Cl)cc2Cl)[C@@H](C)O)CCNC(=O)[C@H]([C@@H](C)O)NC(=O)[C@H](CCN)NC(=O)[C@H](CCN)NC1=O [Compound 1] (X1-[Dab]T[Dap][Dab][Dab][dL][Abu][Dab][Dab]T; lactam 4-C)
in vivo antibacterial efficacy (bacterial burden in lung, FIG. 1) compared with polymyxin B at the same dose (A. baumannii FADDI-AB030; 45 mg/kg total, neutropenic mice): improved in vivo antibacterial efficacy
bacterial cells in the lung (FIG. 2) (A. baumannii FADDI-AB030; total doses of 90 and 180 mg/kg): no longer detectable in the lung
histological damage to the kidneys (in words) (mouse kidney): no histological damage
acute toxicity (mice): without any observable acute toxicity
